From the NIST ThermoML archive (doi:10.1021/je060271a)
Where “and” joins values, the source holds several entries; their conditions need not be identical. Equal entries are not always repeated.

Conditions: 343.16 K, Liquid, Vibrating tube method

CCCCCC(=O)OCC(COC(=O)CCCCC)(COC(=O)CCCCC)COC(=O)CCCCC [pentaerythritol tetrahexanoate]
Conditions | mass density
251.1 kPa | 957.3 kg/m3 and 957.2 kg/m3
254 kPa | 957.3 kg/m3 and 957.1 kg/m3
254.2 kPa | 957.2 kg/m3
254.4 kPa | 957.3 kg/m3
254.5 kPa | 957.3 kg/m3
255.8 kPa | 957.3 kg/m3
255.9 kPa | 957.3 kg/m3
256.3 kPa | 957.3 kg/m3
258.5 kPa | 957.2 kg/m3
258.7 kPa | 957.2 kg/m3
258.9 kPa | 957.3 kg/m3
259.1 kPa | 957.2 kg/m3
260.1 kPa | 957.2 kg/m3 and 957.3 kg/m3
263.7 kPa | 957.2 kg/m3
264.3 kPa | 957.3 kg/m3
264.6 kPa | 957.3 kg/m3
264.8 kPa | 957.2 kg/m3
265 kPa | 957.2 kg/m3
265.1 kPa | 957.3 kg/m3
265.5 kPa | 957.2 kg/m3
265.7 kPa | 957.3 kg/m3
266 kPa | 957.2 kg/m3
266.2 kPa | 957.3 kg/m3 and 957.2 kg/m3
266.5 kPa | 957.3 kg/m3
266.7 kPa | 957.3 kg/m3
267 kPa | 957.3 kg/m3
267.2 kPa | 957.4 kg/m3
267.6 kPa | 957.2 kg/m3
267.7 kPa | 957.3 kg/m3 and 957.4 kg/m3
268.3 kPa | 957.4 kg/m3
268.4 kPa | 957.2 kg/m3 and 957.3 kg/m3
268.6 kPa | 957.3 kg/m3
269.1 kPa | 957.2 kg/m3 and 957.3 kg/m3
269.5 kPa | 957.3 kg/m3
269.8 kPa | 957.2 kg/m3
270.2 kPa | 957.3 kg/m3
270.3 kPa | 957.3 kg/m3
270.5 kPa | 957.3 kg/m3
271.4 kPa | 957.4 kg/m3
271.6 kPa | 957.2 kg/m3 and 957.3 kg/m3
271.7 kPa | 957.4 kg/m3
272.1 kPa | 957.2 kg/m3 and 957.3 kg/m3
272.3 kPa | 957.3 kg/m3
272.6 kPa | 957.3 kg/m3
273 kPa | 957.3 kg/m3
273.3 kPa | 957.3 kg/m3
274.7 kPa | 957.1 kg/m3
274.9 kPa | 957.4 kg/m3
275 kPa | 957.2 kg/m3
276.9 kPa | 957.4 kg/m3
279.9 kPa | 957.2 kg/m3
280.2 kPa | 957.4 kg/m3
280.4 kPa | 957.3 kg/m3 and 957.4 kg/m3
280.6 kPa | 957.3 kg/m3
280.9 kPa | 957.2 kg/m3 and 957.3 kg/m3
281.3 kPa | 957.3 kg/m3
281.5 kPa | 957.3 kg/m3
281.8 kPa | 957.2 kg/m3 and 957.4 kg/m3
282.3 kPa | 957.4 kg/m3
282.7 kPa | 957.4 kg/m3
282.9 kPa | 957.3 kg/m3
283 kPa | 957.3 kg/m3
283.4 kPa | 957.3 kg/m3
283.9 kPa | 957.2 kg/m3
284.2 kPa | 957.3 kg/m3
284.4 kPa | 957.3 kg/m3
284.7 kPa | 957.3 kg/m3
284.8 kPa | 957.3 kg/m3
285.4 kPa | 957.3 kg/m3
290.3 kPa | 957.4 kg/m3
290.5 kPa | 957.3 kg/m3 and 957.4 kg/m3
290.7 kPa | 957.4 kg/m3
